# Legend:
# Assay in all cases: relative viability (nuclei count vs DMSO), 5 days (fraction); higher = more cells survive
# [1] = tested on: NCI-H1993
# Method in brief: (§1)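 Five library-drug doses in √10 steps were combined with a fixed anchor-drug dose, or a single drug was given alone, by pin tool to lung cancer cell lines in 1536-well plates the day after seeding. Nuclei were stained and counted after 5 days. Relative viability is the nuclei count in treated wells over that in vehicle wells, taken as the median of duplicate plates.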
# [2] = tested on: NCI-H2405
# Method in brief: as §1
# [3] = tested on: NCI-H2085
# Method in brief: as §1
# [4] = tested on: SK-MES-1
# Method in brief: as §1
# [5] = tested on: NCI-H1355
# Method in brief: as §1
# [6] = tested on: NCI-H1793
# Method in brief: as §1
# [7] = tested on: UMC-11
# Method in brief: as §1
# [8] = tested on: LCLC-103H
# Method in brief: as §1
# [9] = tested on: NCI-H1395
# Method in brief: as §1
# [10] = tested on: NCI-H23
# Method in brief: as §1
# [11] = tested on: EPLC-272H
# Method in brief: as §1
# [12] = tested on: LCLC-97TM1
# Method in brief: as §1
# [13] = tested on: NCI-H1944
# Method in brief: as §1
# [14] = tested on: HCC-827
# Method in brief: as §1
# [15] = tested on: HCC-44
# Method in brief: as §1
# [16] = tested on: EMC-BAC-2
# Method in brief: as §1
# [17] = tested on: H3255
# Method in brief: as §1
# [18] = tested on: NCI-H650
# Method in brief: as §1
# [19] = tested on: NCI-H2087
# Method in brief: as §1
# [20] = tested on: NCI-H1651
# Method in brief: as §1
# [21] = tested on: NCI-H520
# Method in brief: as §1
# [22] = tested on: ChaGo-K-1
# Method in brief: as §1
# [23] = tested on: NCI-H322M
# Method in brief: as §1
smiles,measurement,setting,value
CC(C)Oc1cc(Nc2nc(N[C@@H](C)c3ccc(F)cn3)ncc2Cl)n[nH]1 [AZ23] + Nc1ncn([C@H]2C[C@H](O)[C@@H](CO)O2)c(=O)n1 [Decitabine] (partner 2 µM),relative viability,[1]; first compound 0.01 µM,0.514
same,relative viability,[1]; first compound 0.03162 µM,0.626
same,relative viability,[1]; first compound 0.3162 µM,0.513
same,relative viability,[2]; first compound 0.01 µM,0.774
same,relative viability,[2]; first compound 0.03162 µM,0.805
same,relative viability,[2]; first compound 0.3162 µM,0.721
same,relative viability,[3]; first compound 0.01 µM,0.565
same,relative viability,[3]; first compound 0.03162 µM,0.539
same,relative viability,[3]; first compound 0.3162 µM,0.5
same,relative viability,[4]; first compound 0.03162 µM,0.382
same,relative viability,[4]; first compound 0.3162 µM,0.357
same,relative viability,[5]; first compound 0.01 µM,0.377
same,relative viability,[5]; first compound 0.03162 µM,0.366
same,relative viability,[5]; first compound 0.3162 µM,0.333
same,relative viability,[6]; first compound 0.01 µM,0.594
same,relative viability,[6]; first compound 0.03162 µM,0.559
same,relative viability,[6]; first compound 0.3162 µM,0.414
same,relative viability,[7]; first compound 0.01 µM,0.562
same,relative viability,[7]; first compound 0.03162 µM,0.747
same,relative viability,[7]; first compound 0.3162 µM,0.587
same,relative viability,[8]; first compound 0.01 µM,0.765
same,relative viability,[8]; first compound 0.03162 µM,0.691
same,relative viability,[8]; first compound 0.3162 µM,0.743
same,relative viability,[9]; first compound 0.03162 µM,0.713
same,relative viability,[9]; first compound 0.3162 µM,0.704
same,relative viability,[10]; first compound 0.03162 µM,0.307
same,relative viability,[10]; first compound 0.3162 µM,0.274
same,relative viability,[11]; first compound 0.03162 µM,0.344
same,relative viability,[11]; first compound 0.3162 µM,0.389
same,relative viability,[12]; first compound 0.01 µM,0.273
same,relative viability,[12]; first compound 0.03162 µM,0.212
same,relative viability,[12]; first compound 0.3162 µM,0.233
same,relative viability,[13]; first compound 0.01 µM,0.456
same,relative viability,[13]; first compound 0.03162 µM,0.46
same,relative viability,[13]; first compound 0.3162 µM,0.433
same,relative viability,[14]; first compound 0.01 µM,0.361
same,relative viability,[14]; first compound 0.03162 µM,0.316
same,relative viability,[14]; first compound 0.3162 µM,0.323
same,relative viability,[15]; first compound 0.01 µM,1.03
same,relative viability,[15]; first compound 0.03162 µM,0.973
same,relative viability,[15]; first compound 0.3162 µM,0.979
same,relative viability,[16]; first compound 0.01 µM,0.966
same,relative viability,[16]; first compound 0.03162 µM,0.998
same,relative viability,[16]; first compound 0.3162 µM,0.949
same,relative viability,[17]; first compound 0.01 µM,0.496
same,relative viability,[17]; first compound 0.03162 µM,0.634
same,relative viability,[17]; first compound 0.3162 µM,0.613
same,relative viability,[18]; first compound 0.01 µM,0.355
same,relative viability,[18]; first compound 0.03162 µM,0.329
same,relative viability,[18]; first compound 0.3162 µM,0.336
same,relative viability,[19]; first compound 0.01 µM,0.303
same,relative viability,[19]; first compound 0.03162 µM,0.265
same,relative viability,[19]; first compound 0.3162 µM,0.237
same,relative viability,[20]; first compound 0.01 µM,0.621
same,relative viability,[20]; first compound 0.03162 µM,0.644
same,relative viability,[20]; first compound 0.3162 µM,0.618
same,relative viability,[21]; first compound 0.01 µM,0.634
same,relative viability,[21]; first compound 0.03162 µM,0.524
same,relative viability,[21]; first compound 0.3162 µM,0.418
same,relative viability,[22]; first compound 0.01 µM,0.567
same,relative viability,[22]; first compound 0.03162 µM,0.512
same,relative viability,[22]; first compound 0.3162 µM,0.519
same,relative viability,[23]; first compound 0.01 µM,0.533
same,relative viability,[23]; first compound 0.03162 µM,0.668
same,relative viability,[23]; first compound 0.3162 µM,0.7
